Laboratory results taken from ChEMBL document CHEMBL4387741, “Optimization of novel reversible Bruton's tyrosine kinase inhibitors identified using Tethering-fragment-based screens” (Bioorg Med Chem, 2019).

Tests used:
[1] = system: Proto-oncogene tyrosine-protein kinase receptor Ret (Homo sapiens), P07949 [V804L]; assay: Inhibition of human partial length RET V804L mutant (E713 to D1014 residues) expressed in bacterial expression system at 1 uM by Kinomescan method relative to control
[2] = molecular target: Tyrosine-protein kinase Mer (Homo sapiens) (UniProt Q12866); assay: Inhibition of wild-type human partial length MERTK (R557 to L884 residues) expressed in bacterial expression system at 1 uM by Kinomescan method relative to control
Tyrosine-protein kinase Mer (Homo sapiens), sequence (Q12866 whole entry, the tested form may be a part): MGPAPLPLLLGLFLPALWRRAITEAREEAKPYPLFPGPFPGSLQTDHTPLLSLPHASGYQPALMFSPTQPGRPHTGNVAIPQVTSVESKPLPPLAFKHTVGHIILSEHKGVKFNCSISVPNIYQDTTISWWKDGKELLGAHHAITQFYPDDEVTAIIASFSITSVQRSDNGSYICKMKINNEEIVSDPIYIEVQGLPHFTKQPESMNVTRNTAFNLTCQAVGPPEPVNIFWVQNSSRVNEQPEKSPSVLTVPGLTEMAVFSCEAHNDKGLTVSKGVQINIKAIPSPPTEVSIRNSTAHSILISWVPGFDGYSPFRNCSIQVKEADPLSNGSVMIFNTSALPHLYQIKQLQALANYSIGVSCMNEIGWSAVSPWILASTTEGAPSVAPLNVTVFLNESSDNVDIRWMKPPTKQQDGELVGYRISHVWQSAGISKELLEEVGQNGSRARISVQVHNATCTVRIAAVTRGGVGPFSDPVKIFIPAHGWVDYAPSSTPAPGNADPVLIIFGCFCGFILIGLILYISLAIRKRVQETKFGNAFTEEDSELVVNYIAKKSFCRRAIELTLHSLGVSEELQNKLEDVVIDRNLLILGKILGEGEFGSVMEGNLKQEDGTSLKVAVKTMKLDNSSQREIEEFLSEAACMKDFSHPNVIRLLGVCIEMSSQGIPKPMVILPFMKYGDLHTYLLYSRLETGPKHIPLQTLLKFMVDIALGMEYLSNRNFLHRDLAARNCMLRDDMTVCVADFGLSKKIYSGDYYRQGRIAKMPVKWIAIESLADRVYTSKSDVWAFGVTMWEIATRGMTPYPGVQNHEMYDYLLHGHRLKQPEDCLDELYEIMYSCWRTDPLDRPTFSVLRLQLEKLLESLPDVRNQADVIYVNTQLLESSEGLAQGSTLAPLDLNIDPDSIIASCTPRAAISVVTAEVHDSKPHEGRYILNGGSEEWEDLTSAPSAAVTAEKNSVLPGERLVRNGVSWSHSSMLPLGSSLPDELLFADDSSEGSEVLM

[3] = molecular target: Dual specificity mitogen-activated protein kinase kinase 7 (Homo sapiens) (UniProt O14733); assay: Inhibition of wild-type human full length MKK7 (M1 to R419 residues) expressed in mammalian expression system at 1 uM by Kinomescan method relative to control
[4] = molecular target: Tyrosine-protein kinase JAK1 (Homo sapiens) (UniProt P23458); assay: Inhibition of wild-type human partial length JAK1 JH1 catalytic domain (V856 to K1154 residues) expressed in bacterial expression system at 1 uM by Kinomescan method relative to control
Tyrosine-protein kinase JAK1 (Homo sapiens), sequence (P23458 whole entry, the tested form may be a part, canonical isoform): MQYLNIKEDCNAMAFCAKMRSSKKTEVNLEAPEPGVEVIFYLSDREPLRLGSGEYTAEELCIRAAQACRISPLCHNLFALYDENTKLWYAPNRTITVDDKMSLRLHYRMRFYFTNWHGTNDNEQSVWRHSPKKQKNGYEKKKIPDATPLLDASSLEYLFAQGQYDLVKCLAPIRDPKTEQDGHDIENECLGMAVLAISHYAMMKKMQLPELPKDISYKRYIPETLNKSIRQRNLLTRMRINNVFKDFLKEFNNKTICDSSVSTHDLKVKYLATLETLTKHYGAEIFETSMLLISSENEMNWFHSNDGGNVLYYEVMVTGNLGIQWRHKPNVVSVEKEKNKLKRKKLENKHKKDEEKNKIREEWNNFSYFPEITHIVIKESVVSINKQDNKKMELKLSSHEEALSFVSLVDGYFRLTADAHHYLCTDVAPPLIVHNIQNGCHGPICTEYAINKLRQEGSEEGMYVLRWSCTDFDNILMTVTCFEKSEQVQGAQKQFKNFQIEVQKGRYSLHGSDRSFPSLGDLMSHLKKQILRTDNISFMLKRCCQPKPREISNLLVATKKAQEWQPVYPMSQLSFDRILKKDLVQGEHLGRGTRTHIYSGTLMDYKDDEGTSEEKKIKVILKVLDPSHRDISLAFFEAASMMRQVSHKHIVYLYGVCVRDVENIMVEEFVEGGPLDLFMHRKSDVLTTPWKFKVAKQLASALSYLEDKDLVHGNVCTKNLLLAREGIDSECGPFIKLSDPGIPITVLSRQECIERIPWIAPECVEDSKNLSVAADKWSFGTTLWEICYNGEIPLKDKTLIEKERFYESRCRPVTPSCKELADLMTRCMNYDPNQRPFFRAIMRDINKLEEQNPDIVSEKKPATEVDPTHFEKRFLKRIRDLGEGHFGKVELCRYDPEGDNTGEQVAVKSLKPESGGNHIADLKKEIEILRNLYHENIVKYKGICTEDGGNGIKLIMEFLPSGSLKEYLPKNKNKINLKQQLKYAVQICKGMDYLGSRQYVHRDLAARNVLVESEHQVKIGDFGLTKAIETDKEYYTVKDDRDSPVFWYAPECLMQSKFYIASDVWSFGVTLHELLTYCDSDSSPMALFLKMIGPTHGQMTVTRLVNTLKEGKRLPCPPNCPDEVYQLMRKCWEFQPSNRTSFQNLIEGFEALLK

[5] = molecular target: Phosphatidylinositol 4,5-bisphosphate 3-kinase catalytic subunit gamma isoform (Homo sapiens) (UniProt P48736); assay: Inhibition of wild-type human partial length PIK3CG (S144 to A1102 residues) expressed in mammalian expression system at 1 uM by Kinomescan method relative to control
Phosphatidylinositol 4,5-bisphosphate 3-kinase catalytic subunit gamma isoform (Homo sapiens), sequence (P48736 whole entry, looked up, the tested form may be a part, canonical isoform): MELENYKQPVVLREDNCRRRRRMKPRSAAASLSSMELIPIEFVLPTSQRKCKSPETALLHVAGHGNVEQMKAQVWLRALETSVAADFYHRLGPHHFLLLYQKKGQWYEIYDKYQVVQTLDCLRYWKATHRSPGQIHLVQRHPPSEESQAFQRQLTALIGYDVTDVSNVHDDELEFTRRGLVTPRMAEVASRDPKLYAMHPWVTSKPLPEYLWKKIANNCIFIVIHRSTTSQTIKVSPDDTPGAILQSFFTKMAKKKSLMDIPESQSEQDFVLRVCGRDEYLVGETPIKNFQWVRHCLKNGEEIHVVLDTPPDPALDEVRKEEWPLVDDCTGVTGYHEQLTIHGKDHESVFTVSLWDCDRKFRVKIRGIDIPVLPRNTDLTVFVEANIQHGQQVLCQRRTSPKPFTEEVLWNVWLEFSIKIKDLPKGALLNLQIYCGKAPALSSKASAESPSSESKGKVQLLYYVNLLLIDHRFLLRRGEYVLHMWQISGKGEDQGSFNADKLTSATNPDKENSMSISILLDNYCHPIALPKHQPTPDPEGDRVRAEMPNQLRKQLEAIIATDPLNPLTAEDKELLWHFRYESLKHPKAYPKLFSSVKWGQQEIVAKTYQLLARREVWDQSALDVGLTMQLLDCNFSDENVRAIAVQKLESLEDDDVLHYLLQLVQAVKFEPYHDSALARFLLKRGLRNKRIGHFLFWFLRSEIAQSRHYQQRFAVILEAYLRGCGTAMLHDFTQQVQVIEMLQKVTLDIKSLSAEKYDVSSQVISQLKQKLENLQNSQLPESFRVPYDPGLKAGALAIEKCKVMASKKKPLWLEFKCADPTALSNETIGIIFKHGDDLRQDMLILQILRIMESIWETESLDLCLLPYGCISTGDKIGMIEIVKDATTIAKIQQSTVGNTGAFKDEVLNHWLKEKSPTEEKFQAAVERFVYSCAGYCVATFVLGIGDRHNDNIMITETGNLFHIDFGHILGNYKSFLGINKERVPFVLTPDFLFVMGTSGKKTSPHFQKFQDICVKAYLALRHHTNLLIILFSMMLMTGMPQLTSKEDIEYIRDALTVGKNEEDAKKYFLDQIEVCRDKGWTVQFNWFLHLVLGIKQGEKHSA

[6] = system: Epidermal growth factor receptor (Homo sapiens), P00533 [UNDEFINED MUTATION]; assay: Inhibition of human partial length EGFR L747-S752del/P753S mutant expressed in bacterial expression system at 1 uM by Kinomescan method relative to control
[7] = molecular target: Rho-associated protein kinase 1 (Homo sapiens) (UniProt Q13464); assay: Inhibition of wild-type human partial length ROCK1 (M1 to R415 residues) expressed in mammalian expression system at 1 uM by Kinomescan method relative to control
[8] = molecular target: Homeodomain-interacting protein kinase 1 (Homo sapiens) (UniProt Q86Z02); assay: Inhibition of wild-type human partial length HIPK1 (M146 to I555 residues) expressed in mammalian expression system at 1 uM by Kinomescan method relative to control
[9] = molecular target: Tyrosine-protein kinase BTK (Homo sapiens, UniProt Q06187); assay: biochemical
Description: Reversible inhibition of recombinant full-length N-terminal 6-His-tagged human BTK expressed in baculovirus infected Sf21 insect cells using fluorescent-labeled polyGAT peptide as substrate incubated for 30 mins by TR-FRET assay

[10] = molecular target: Phosphatidylinositol 4-phosphate 5-kinase type-1 gamma (Homo sapiens) (UniProt O60331); assay: Inhibition of wild-type human partial length PIP5K1C (M1 to T668 residues) expressed in mammalian expression system at 1 uM by Kinomescan method relative to control
[11] = molecular target: SRSF protein kinase 3 (Homo sapiens) (UniProt Q9UPE1); assay: Inhibition of wild-type human partial length SRPK3 (P41 to P567 residues) expressed in bacterial expression system at 1 uM by Kinomescan method relative to control
[12] = molecular target: Tyrosine-protein kinase FRK (Homo sapiens) (UniProt P42685); assay: Inhibition of wild-type human partial length FRK (A215 to F503 residues) expressed in bacterial expression system at 10 uM by Kinomescan method relative to control
[13] = system: Receptor-type tyrosine-protein kinase FLT3 (Homo sapiens), P36888 [K663Q]; assay: Inhibition of human partial length FLT3 K663Q mutant (V592 to Y969 residues) expressed in bacterial expression system at 10 uM by Kinomescan method relative to control
[14] = molecular target: Mitogen-activated protein kinase 6 (Homo sapiens) (UniProt Q16659); assay: Inhibition of wild-type human partial length ERK3 (M1 to P413 residues) expressed in bacterial expression system at 10 uM by Kinomescan method relative to control
Mitogen-activated protein kinase 6 (Homo sapiens), sequence (Q16659 whole entry, the tested form may be a part): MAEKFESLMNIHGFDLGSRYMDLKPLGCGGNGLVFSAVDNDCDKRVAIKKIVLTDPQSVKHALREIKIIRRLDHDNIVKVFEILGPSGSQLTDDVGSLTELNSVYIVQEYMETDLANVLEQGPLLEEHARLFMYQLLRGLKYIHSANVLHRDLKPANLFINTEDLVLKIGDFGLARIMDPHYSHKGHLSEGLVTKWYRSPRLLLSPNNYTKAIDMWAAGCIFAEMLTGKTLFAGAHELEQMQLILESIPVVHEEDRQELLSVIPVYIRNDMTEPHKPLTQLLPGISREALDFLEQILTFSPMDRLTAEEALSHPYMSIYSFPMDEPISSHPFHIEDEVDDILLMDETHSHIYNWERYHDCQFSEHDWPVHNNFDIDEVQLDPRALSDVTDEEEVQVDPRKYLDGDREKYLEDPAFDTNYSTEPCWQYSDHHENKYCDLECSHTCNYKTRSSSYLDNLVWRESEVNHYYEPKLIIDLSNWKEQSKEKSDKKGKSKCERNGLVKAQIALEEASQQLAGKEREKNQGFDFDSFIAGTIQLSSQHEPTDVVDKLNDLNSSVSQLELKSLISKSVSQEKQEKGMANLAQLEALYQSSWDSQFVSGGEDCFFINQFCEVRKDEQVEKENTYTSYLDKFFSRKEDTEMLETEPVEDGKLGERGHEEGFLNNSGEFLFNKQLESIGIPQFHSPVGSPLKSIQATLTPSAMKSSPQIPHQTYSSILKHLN

[15] = molecular target: Cyclin-dependent kinase 15 (Homo sapiens) (UniProt Q96Q40); assay: Inhibition of wild-type human full length PFTAIRE2 (M1 to W384 residues) expressed in bacterial expression system at 10 uM by Kinomescan method relative to control
[16] = system: Receptor-type tyrosine-protein kinase FLT3 (Homo sapiens), P36888 [D835Y]; assay: Inhibition of human partial length FLT3 D835Y mutant (Q580 to Y969 residues) expressed in bacterial expression system at 10 uM by Kinomescan method relative to control
[17] = molecular target: Serine/threonine-protein kinase D1 (Homo sapiens) (UniProt Q15139); assay: Inhibition of wild-type human partial length PRKD1 (G551 to E870 residues) expressed in bacterial expression system at 10 uM by Kinomescan method relative to control
[18] = molecular target: Cyclin-dependent kinase-like 5 (Homo sapiens) (UniProt O76039); assay: Inhibition of wild-type human partial length CDKL5 (M1 to S337 residues) expressed in mammalian expression system at 10 uM by Kinomescan method relative to control
[19] = molecular target: Insulin receptor (Homo sapiens) (UniProt P06213); assay: Inhibition of wild-type human partial length INSR (P997 to E1318 residues) expressed in mammalian expression system at 10 uM by Kinomescan method relative to control
[20] = system: Phosphatidylinositol 4,5-bisphosphate 3-kinase catalytic subunit alpha isoform (Homo sapiens), P42336 [E545A]; assay: Inhibition of human partial length PIK3CA E545A mutant (R108 to N1068 residues) expressed in mammalian expression system at 10 uM by Kinomescan method relative to control
[21] = system: Receptor-type tyrosine-protein kinase FLT3 (Homo sapiens), P36888 [D835V]; assay: Inhibition of human partial length FLT3 D835V mutant (V592 to Y969 residues) expressed in bacterial expression system at 10 uM by Kinomescan method relative to control
[22] = molecular target: Serine/threonine-protein kinase tousled-like 1 (Homo sapiens) (UniProt Q9UKI8); assay: Inhibition of wild-type human partial length TLK1 (K447 to A754 residues) expressed in bacterial expression system at 10 uM by Kinomescan method relative to control
[23] = molecular target: Eukaryotic translation initiation factor 2-alpha kinase 1 (Homo sapiens) (UniProt Q9BQI3); assay: Inhibition of wild-type human partial length EIF2AK1 (Q147 to E603 residues) expressed in mammalian expression system at 10 uM by Kinomescan method relative to control
Eukaryotic translation initiation factor 2-alpha kinase 1 (Homo sapiens), sequence (Q9BQI3 whole entry, the tested form may be a part): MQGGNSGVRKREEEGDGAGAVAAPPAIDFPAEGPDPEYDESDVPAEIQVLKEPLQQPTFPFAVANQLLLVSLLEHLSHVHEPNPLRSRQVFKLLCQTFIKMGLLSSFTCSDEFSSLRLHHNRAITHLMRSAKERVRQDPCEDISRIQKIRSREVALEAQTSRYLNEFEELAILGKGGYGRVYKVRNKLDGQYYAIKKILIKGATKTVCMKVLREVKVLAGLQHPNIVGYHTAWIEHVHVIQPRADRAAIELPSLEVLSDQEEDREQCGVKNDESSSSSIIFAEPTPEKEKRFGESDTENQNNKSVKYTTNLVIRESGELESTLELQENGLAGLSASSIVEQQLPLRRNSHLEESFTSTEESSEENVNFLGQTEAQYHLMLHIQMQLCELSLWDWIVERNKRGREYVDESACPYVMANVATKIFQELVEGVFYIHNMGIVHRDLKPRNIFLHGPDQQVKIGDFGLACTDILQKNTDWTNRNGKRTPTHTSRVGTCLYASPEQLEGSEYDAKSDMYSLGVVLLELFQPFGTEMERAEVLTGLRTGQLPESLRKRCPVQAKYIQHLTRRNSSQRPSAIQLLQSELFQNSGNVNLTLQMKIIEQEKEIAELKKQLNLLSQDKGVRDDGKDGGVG

[24] = system: Fibroblast growth factor receptor 3 (Homo sapiens), P22607 [G697C]; assay: Inhibition of human partial length FGFR3 G697C mutant (R442 to S771 residues) expressed in bacterial expression system at 10 uM by Kinomescan method relative to control
[25] = molecular target: Angiopoietin-1 receptor (Homo sapiens) (UniProt Q02763); assay: Inhibition of wild-type human partial length TIE2 (N804 to T1112 residues) expressed in bacterial expression system at 10 uM by Kinomescan method relative to control
[26] = molecular target: Casein kinase I isoform gamma-2 (Homo sapiens) (UniProt P78368); assay: Inhibition of wild-type human full length CSNK1G2 (M1 to K415 residues) expressed in bacterial expression system at 10 uM by Kinomescan method relative to control
Casein kinase I isoform gamma-2 (Homo sapiens), sequence (P78368 whole entry, looked up, the tested form may be a part, canonical isoform): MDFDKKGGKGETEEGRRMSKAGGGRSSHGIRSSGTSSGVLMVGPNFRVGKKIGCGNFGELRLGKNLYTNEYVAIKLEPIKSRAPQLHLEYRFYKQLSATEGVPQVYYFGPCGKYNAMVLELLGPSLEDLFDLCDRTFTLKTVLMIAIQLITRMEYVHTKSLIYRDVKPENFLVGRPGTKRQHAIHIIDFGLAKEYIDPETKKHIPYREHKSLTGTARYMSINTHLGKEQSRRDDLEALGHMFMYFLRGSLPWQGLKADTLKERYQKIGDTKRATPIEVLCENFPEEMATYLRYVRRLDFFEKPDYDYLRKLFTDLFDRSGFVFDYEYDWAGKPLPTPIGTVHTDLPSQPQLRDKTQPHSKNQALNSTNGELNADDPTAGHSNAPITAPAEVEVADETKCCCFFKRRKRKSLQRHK

[27] = molecular target: Myotonin-protein kinase (Homo sapiens) (UniProt Q09013); assay: Inhibition of wild-type human partial length DMPK (V47 to V415 residues) expressed in bacterial expression system at 10 uM by Kinomescan method relative to control

O=C(Nc1cccc([C@@H]2CN(c3ncnc4[nH]ccc34)CCN2CCO)c1)Nc1c(F)cccc1N1CCCC1
inhibition [1]: 0.2% | inhibition [2]: 31% | inhibition [3]: 74% | inhibition [4]: 17% | inhibition [5]: 84% | inhibition [6]: 100% | inhibition [7]: 71% | inhibition [8]: 80% | IC50 [9]: 1 nM | inhibition [10]: 70% | inhibition [11]: 68%

O=C(Nc1cccc([C@H]2CCCN(c3ncnc4[nH]ccc34)C2)c1)Nc1ccccc1N1CCCC1
inhibition [12]: 96% | inhibition [13]: 8.1% | inhibition [14]: 100% | inhibition [15]: 93% | inhibition [16]: 1.9% | inhibition [17]: 100% | inhibition [18]: 96% | inhibition [19]: 81% | inhibition [20]: 58% | inhibition [21]: 4.3% | inhibition [22]: 78% | inhibition [23]: 100% | inhibition [24]: 53% | inhibition [25]: 75% | inhibition [26]: 100% | inhibition [27]: 100%
